Reference: patent publication US20220249394A1 (priority 2019, published 2022)

Legend:
[1] = target: prion protein (PrP^C) in N2a cells (Mus musculus, UniProt P04925); format: cell-based; conditions: 6 mM HFIP for 24 hours, protease K 10 μg/ml 37° C. 30 minutes, Western blotting, FIG. 2 #1 to #4
[2] = system: ScNeuro 2a (ScN2a) cells producing abnormal prion protein (PrP^Sc); format: cell-based, mouse; conditions: 24 hours culture with 0-40 mM HFIP, crystal violet staining, FIG. 1
[3] = system: Neuro 2a (N2a) cells producing normal prion protein (PrP^C); format: cell-based, mouse; conditions: 24 hours culture with 0-40 mM HFIP, crystal violet staining, FIG. 1

prion protein (PrP^C) in N2a cells, sequence (P04925 23-230 limits assumed): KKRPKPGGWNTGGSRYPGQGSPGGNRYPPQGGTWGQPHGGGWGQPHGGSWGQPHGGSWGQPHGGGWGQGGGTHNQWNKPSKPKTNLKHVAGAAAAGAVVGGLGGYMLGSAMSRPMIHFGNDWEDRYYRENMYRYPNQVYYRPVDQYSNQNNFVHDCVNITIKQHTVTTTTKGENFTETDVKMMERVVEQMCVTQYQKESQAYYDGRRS

OC(C(F)(F)F)C(F)(F)F [HFIP, 1,1,1,3,3,3-hexafluoro-2-propanol]
degradation of protein by protease K [1]: degraded by protease K with or without the addition of HFIP
upper concentration limit at which ScN2a cells can survive [2]: 20 mM
upper concentration limit of HFIP at which N2a cells can survive [3]: 25 mM
